Results published in patent US20260262643A1, “HERBICIDAL BENZOXAZINES” (FMC CORPORATION, priority 2022, published 2026).

How the values were obtained:
[1] = test system: ryegrass, Italian; test: Test A postemergence; type: in vivo, Lolium multiflorum; details: 1000 g ai/ha, Postemergence; 0 to 100 scale
Text: (§1) Seeds of plant species selected from barnyardgrass (Echinochloa crusgalli), blackgrass (Alopecurus myosuroides), corn (Zea mays), foxtail, giant (giant foxtail, Setaria faberi), goosegrass (Eleusine indica), kochia (Bassia scoparia), oat, wild (wild oat, Avena fatua), pigweed, palmer (palmer amaranth, palmer pigweed, Amaranthus palmeri), Pigweed, Redroot (redroot pigweed, Amaranthus retroflexus), ragweed (common ragweed, Ambrosia artemisiifolia), ryegrass, Italian (italian ryegrass, Lolium multiflorum), soybean (Glycine max), and wheat (Triticum aestivum) were planted into a blend of loam soil and sand and treated preemergence with a directed soil spray using test chemicals formulated in a non-phytotoxic solvent mixture which included a surfactant. At the same time, plants selected from these crops and weed species and also galium (catchweed bedstraw, Galium aparine) and horseweed (Erigeron canadensis) were planted in pots containing the same blend of loam soil and sand and treated with postemergence applications of test chemicals formulated in the same manner. Plants ranged in height from 2 to 10 cm and were in the one- to two-leaf stage for the postemergence treatment. Treated plants and untreated controls were maintained in a greenhouse for 10 days, after which time all treated plants were compared to untreated controls and visually evaluated for injury. Plant response ratings, summarized in Table A, are based on a 0 to 100 scale where 0 is no effect and 100 is complete control. A dash (-) response means no test result.

[2] = test system: horseweed; test: Test A postemergence; type: in vivo, Erigeron canadensis; details: 1000 g ai/ha, Postemergence; 0 to 100 scale
Text: as §1

[3] = test system: pigweed, palmer; test: Test A preemergence; type: in vivo, Amaranthus palmeri; details: 1000 g ai/ha, 0 to 100 scale (0 no effect, 100 complete control), 10 days
Text: as §1

[4] = test system: goosegrass; test: Test A postemergence; type: in vivo, Eleusine indica; details: 1000 g ai/ha, Postemergence; 0 to 100 scale
Text: as §1

[5] = test system: blackgrass; test: Test A preemergence; type: in vivo, Alopecurus myosuroides; details: 1000 g ai/ha, 0 to 100 scale (0 no effect, 100 complete control), 10 days
Text: as §1

[6] = test system: ragweed; test: Test A preemergence; type: in vivo, Ambrosia artemisiifolia; details: 1000 g ai/ha, 0 to 100 scale (0 no effect, 100 complete control), 10 days
Text: as §1

[7] = test system: galium; test: Test A postemergence; type: in vivo, Galium aparine; details: 1000 g ai/ha, Postemergence; 0 to 100 scale
Text: as §1

[8] = test system: foxtail, giant; test: Test A postemergence; type: in vivo, Setaria faberi; details: 1000 g ai/ha, Postemergence; 0 to 100 scale
Text: as §1

[9] = test system: goosegrass; test: Test A preemergence; type: in vivo, Eleusine indica; details: 1000 g ai/ha, 0 to 100 scale (0 no effect, 100 complete control), 10 days
Text: as §1

[10] = test system: foxtail, giant; test: Test A preemergence; type: in vivo, Setaria faberi; details: 1000 g ai/ha, 0 to 100 scale (0 no effect, 100 complete control), 10 days
Text: as §1

[11] = test system: ragweed; test: Test A postemergence; type: in vivo, Ambrosia artemisiifolia; details: 1000 g ai/ha, Postemergence; 0 to 100 scale
Text: as §1

[12] = test system: kochia; test: Test A preemergence; type: in vivo, Bassia scoparia; details: 1000 g ai/ha, 0 to 100 scale (0 no effect, 100 complete control), 10 days
Text: as §1

[13] = test system: kochia; test: Test A postemergence; type: in vivo, Bassia scoparia; details: 1000 g ai/ha, Postemergence; 0 to 100 scale
Text: as §1

[14] = test system: blackgrass; test: Test A postemergence; type: in vivo, Alopecurus myosuroides; details: 1000 g ai/ha, Postemergence; 0 to 100 scale
Text: as §1

[15] = test system: ryegrass, Italian; test: Test A preemergence; type: in vivo, Lolium multiflorum; details: 1000 g ai/ha, 0 to 100 scale (0 no effect, 100 complete control), 10 days
Text: as §1

[16] = test system: pigweed, palmer; test: Test A postemergence; type: in vivo, Amaranthus palmeri; details: 1000 g ai/ha, Postemergence; 0 to 100 scale
Text: as §1

Cc1nc(-c2cccc(C(=O)N3C[C@H](C)Oc4c(Cl)cccc43)c2)no1 [Compound 120]
Plant response rating, Ryegrass, Italian [1]: 0 | Plant response rating, Horseweed [2]: 0 | Plant response rating, Pigweed, Palmer [3]: 0 | Plant response rating, Goosegrass [4]: 10 | Plant response rating, Blackgrass [5]: 10 | Plant response rating, Ragweed [6]: 0 | Plant response rating, Galium [7]: 40 | Plant response rating, Foxtail, Giant [8]: 20 | Plant response rating, Goosegrass [9]: 10 | Plant response rating, Foxtail, Giant [10]: 20 | Plant response rating, Ragweed [11]: 0 | Plant response rating, Kochia [12]: 0 | Plant response rating, Kochia [13]: 50 | Plant response rating, Blackgrass [14]: 0 | Plant response rating, Ryegrass, Italian [15]: 10 | Plant response rating, Pigweed, Palmer [16]: 40
